According to patent US11148991B2, “5-bromo-2-(alpha-hydroxypentyl)benzoic acid sodium salts in different crystal forms, and preparation method thereof” (priority 2013, dated 2021):

Test: Effect on body weight of rats
Assay type: in vivo
Conditions: for BW: in g (unit assumed)
[1] = Day 6, rats F, ig group 20 mg/kg
[2] = Day 6, rats F, iv group 12 mg/kg
[3] = Day 6, rats M, ig group 20 mg/kg
[4] = Day 6, rats M, iv group 12 mg/kg
[5] = Day 11, rats F, ig group 20 mg/kg
[6] = Day 11, rats F, iv group 12 mg/kg
[7] = Day 11, rats M, ig group 20 mg/kg
[8] = Day 11, rats M, iv group 12 mg/kg
[9] = Day 16, rats F, ig group 20 mg/kg
[10] = Day 16, rats F, iv group 12 mg/kg
[11] = Day 16, rats M, ig group 20 mg/kg
[12] = Day 16, rats M, iv group 12 mg/kg
[13] = Day 21, rats F, ig group 20 mg/kg
[14] = Day 21, rats F, iv group 12 mg/kg
[15] = Day 21, rats M, ig group 20 mg/kg
[16] = Day 21, rats M, iv group 12 mg/kg
[17] = Day 24, rats F, ig group 20 mg/kg
[18] = Day 24, rats F, iv group 12 mg/kg
[19] = Day 24, rats M, ig group 20 mg/kg
[20] = Day 24, rats M, iv group 12 mg/kg

CCCCC(O)c1ccc(Br)cc1C(=O)[O-].[Na+] (stereo not drawn) [BZP (amorphous form), 5-bromo-2-(α-hydroxypentyl)benzoic acid sodium salt]
BW (Day 1, rats F, ig group 20 mg/kg): 179 ± 12
BW (Day 1, rats F, iv group 12 mg/kg): 182 ± 13
BW (Day 1, rats M, ig group 20 mg/kg): 183 ± 8
BW (Day 1, rats M, iv group 12 mg/kg): 179 ± 13
ΔW (%) [1]: 7 ± 4%
BW [1]: 192 ± 16
ΔW (%) [2]: 7 ± 2%
BW [2]: 195 ± 12
ΔW (%) [3]: 15 ± 3%
BW [3]: 210 ± 8
ΔW (%) [4]: 14 ± 6%
BW [4]: 204 ± 7
ΔW (%) [5]: 7 ± 2 %
BW [5]: 203 ± 14
ΔW (%) [6]: 3 ± 2 %
BW [6]: 200 ± 15
ΔW (%) [7]: 17 ± 5%
BW [7]: 245 ± 12
ΔW (%) [8]: 14 ± 2 %
BW [8]: 238 ± 6
ΔW (%) [9]: 25 ± 4 %
BW [9]: 224 ± 11
ΔW (%) [10]: 21 ± 7 %
BW [10]: 212 ± 14
ΔW (%) [11]: 53 ± 14%
BW [11]: 280 ± 18
ΔW (%) [12]: 31 ± 10%
BW [12]: 270 ± 6
ΔW (%) [13]: 29 ± 6 %
BW [13]: 230 ± 15
ΔW (%) [14]: 23 ± 6 %
BW [14]: 223 ± 20
ΔW (%) [15]: 75 ± 14%
BW [15]: 320 ± 18
ΔW (%) [16]: 66 ± 15 %
BW [16]: 296 ± 8
ΔW (%) [17]: 31 ± 5 %
BW [17]: 235 ± 12
ΔW (%) [18]: 21 ± 6 %
BW [18]: 221 ± 19
ΔW (%) [19]: 84 ± 14%
BW [19]: 337 ± 18
ΔW (%) [20]: 71 ± 16 %
BW [20]: 304 ± 10
